Read-outs that look alike come from different tables or passages of the source.
Key:
Assay in all cases: biochemical
Set-up in all cases: KINOMEscan active site-directed competition binding assay (DiscoveRx), 456 kinases, per cent of control at 300 nM
Settings in all cases: read-out: Percent of Control (%)
AKT1 = AKT1 (Homo sapiens, UniProt P31749)
In short: (§1)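 Binding was measured with an active site-directed competition binding assay that quantifies compound–kinase interactions. Test compounds were screened at 300 nmol/L across a 456-kinase panel.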

AURKC = AURKC (Homo sapiens, UniProt Q9UQB9)
In short: as §1

BTK = BTK (Homo sapiens, UniProt Q06187)
In short: as §1

CAMK2D = CAMK2D (Homo sapiens, UniProt Q13557)
In short: as §1

CDK5 = CDK5 (Homo sapiens, UniProt Q00535)
In short: as §1

CDKL1 = CDKL1 (Homo sapiens, UniProt Q00532)
In short: as §1

CLK3 = CLK3 (Homo sapiens, UniProt P49761)
In short: as §1

[1] = molecular target: EGFR(L747-E749del, A750P) (Homo sapiens, UniProt P00533, A750P/DEL747-749)
In short: as §1

ERBB4 = ERBB4 (Homo sapiens, UniProt Q15303)
In short: as §1

IRAK1 = IRAK1 (Homo sapiens, UniProt P51617)
In short: as §1

MAP4K5 = MAP4K5 (Homo sapiens, UniProt Q9Y4K4)
In short: as §1

MST4 = molecular target: T1, MST4 (Homo sapiens, UniProt Q9P289)
T1 construct: gene STK26
In short: as §1

PAK1 = PAK1 (Homo sapiens, UniProt Q13153)
In short: as §1

PIK3CB = PIK3CB (Homo sapiens, UniProt P42338)
In short: as §1

PRKCQ = PRKCQ (Homo sapiens, UniProt Q04759)
In short: as §1

RIPK1 = RIPK1 (Homo sapiens, UniProt Q13546)
In short: as §1

[2] = molecular target: T2, RSK3(Kin.Dom.1-N-terminal) (Homo sapiens, UniProt Q15349)
T2 construct: gene RPS6KA2; Kin.Dom.1-N-terminal
In short: as §1

[3] = molecular target: T3, RSK4(Kin.Dom.1-N-terminal) (Homo sapiens, UniProt Q9UK32)
T3 construct: gene RPS6KA6; Kin.Dom.1-N-terminal
In short: as §1

SGK3 = SGK3 (Homo sapiens, UniProt Q96BR1)
In short: as §1

STK36 = STK36 (Homo sapiens, UniProt Q9NRP7)
In short: as §1

TTK = TTK (Homo sapiens, UniProt P33981)
In short: as §1

WEE2 = WEE2 (Homo sapiens, UniProt P0C1S8)
In short: as §1

Chain of WEE2 (P0C1S8 whole entry): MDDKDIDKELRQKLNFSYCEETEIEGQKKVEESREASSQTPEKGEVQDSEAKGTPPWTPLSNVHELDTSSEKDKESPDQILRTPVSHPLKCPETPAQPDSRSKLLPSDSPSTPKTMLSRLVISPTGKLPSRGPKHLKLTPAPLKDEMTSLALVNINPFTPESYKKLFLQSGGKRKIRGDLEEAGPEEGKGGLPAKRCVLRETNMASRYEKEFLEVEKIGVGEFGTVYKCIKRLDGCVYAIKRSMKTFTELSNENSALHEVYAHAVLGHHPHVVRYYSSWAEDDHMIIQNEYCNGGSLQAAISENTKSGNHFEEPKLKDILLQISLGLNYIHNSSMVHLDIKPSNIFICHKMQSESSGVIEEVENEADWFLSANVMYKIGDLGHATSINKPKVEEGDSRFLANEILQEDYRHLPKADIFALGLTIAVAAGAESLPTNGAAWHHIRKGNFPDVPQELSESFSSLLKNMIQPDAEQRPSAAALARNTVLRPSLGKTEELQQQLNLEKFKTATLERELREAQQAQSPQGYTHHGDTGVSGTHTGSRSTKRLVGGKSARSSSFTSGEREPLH
Chain of AURKC (Q9UQB9 whole entry): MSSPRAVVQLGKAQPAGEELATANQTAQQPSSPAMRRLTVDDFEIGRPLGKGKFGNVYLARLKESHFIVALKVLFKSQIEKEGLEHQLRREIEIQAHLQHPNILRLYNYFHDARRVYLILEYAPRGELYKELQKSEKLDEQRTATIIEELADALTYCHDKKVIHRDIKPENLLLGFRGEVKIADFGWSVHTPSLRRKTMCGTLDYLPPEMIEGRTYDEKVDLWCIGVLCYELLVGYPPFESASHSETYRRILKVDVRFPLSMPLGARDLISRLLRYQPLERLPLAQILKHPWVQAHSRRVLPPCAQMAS
Chain of ERBB4 (Q15303 whole entry): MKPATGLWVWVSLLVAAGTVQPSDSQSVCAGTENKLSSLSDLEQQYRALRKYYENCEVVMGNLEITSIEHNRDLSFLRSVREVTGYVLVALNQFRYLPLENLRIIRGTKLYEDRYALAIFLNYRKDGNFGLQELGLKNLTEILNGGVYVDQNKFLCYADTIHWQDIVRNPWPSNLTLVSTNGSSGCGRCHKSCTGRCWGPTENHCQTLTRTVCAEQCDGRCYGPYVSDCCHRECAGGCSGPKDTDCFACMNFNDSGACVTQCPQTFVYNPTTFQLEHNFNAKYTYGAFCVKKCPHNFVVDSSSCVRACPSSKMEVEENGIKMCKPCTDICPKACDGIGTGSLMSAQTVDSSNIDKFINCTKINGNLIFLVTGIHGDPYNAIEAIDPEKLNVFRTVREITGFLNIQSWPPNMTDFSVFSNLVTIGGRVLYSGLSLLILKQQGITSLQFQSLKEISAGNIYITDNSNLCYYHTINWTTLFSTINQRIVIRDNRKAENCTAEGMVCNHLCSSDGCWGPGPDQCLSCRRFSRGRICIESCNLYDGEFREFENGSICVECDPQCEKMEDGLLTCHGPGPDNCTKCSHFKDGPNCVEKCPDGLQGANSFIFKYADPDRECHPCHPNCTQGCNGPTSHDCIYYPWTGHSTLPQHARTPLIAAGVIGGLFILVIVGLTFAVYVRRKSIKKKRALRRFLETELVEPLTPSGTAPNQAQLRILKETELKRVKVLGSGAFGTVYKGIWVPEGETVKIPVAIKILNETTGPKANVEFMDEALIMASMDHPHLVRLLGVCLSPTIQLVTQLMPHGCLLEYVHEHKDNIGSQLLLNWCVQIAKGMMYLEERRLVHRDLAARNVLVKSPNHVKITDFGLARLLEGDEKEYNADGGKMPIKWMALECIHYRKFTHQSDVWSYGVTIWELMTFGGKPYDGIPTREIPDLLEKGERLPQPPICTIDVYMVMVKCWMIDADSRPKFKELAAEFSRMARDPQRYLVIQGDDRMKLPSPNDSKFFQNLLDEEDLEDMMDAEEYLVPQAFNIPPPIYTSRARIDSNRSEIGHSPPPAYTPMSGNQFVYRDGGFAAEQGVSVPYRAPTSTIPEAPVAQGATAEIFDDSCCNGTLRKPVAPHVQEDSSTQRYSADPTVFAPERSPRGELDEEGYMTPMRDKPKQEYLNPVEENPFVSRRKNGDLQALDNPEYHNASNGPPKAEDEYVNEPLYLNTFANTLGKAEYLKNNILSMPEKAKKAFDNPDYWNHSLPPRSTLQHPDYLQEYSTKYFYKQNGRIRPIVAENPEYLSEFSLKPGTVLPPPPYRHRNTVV
Chain of CLK3 (P49761 whole entry): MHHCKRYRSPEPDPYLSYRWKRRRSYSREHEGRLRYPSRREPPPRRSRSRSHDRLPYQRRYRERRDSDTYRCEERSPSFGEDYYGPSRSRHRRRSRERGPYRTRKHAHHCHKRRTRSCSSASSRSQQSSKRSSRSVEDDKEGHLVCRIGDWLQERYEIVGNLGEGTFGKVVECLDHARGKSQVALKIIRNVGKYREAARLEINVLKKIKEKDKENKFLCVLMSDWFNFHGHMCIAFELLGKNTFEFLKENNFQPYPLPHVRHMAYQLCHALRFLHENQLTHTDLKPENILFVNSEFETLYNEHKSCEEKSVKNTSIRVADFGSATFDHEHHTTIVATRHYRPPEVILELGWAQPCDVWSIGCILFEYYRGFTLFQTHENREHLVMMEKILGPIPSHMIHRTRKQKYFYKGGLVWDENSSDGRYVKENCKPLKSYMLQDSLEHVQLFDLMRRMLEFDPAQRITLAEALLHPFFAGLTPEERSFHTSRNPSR
Chain of IRAK1 (P51617 whole entry): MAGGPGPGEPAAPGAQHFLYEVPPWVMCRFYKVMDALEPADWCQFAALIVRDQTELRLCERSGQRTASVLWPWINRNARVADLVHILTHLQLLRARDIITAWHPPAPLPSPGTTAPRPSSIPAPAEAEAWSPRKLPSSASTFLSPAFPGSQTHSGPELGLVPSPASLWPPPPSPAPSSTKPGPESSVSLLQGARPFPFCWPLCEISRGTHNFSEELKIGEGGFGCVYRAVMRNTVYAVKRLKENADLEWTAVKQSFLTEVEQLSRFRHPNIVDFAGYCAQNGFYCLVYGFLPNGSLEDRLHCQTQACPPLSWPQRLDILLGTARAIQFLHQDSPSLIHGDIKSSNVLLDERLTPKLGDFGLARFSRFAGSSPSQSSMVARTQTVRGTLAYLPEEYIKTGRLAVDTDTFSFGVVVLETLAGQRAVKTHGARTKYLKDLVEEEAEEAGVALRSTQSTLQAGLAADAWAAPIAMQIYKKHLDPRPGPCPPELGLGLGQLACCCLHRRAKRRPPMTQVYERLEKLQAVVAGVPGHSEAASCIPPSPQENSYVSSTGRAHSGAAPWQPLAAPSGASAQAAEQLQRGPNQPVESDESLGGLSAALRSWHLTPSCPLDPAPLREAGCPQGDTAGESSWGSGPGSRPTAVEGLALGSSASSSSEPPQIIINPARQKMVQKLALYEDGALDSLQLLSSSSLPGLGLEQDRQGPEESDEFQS
Chain of RIPK1 (Q13546 whole entry): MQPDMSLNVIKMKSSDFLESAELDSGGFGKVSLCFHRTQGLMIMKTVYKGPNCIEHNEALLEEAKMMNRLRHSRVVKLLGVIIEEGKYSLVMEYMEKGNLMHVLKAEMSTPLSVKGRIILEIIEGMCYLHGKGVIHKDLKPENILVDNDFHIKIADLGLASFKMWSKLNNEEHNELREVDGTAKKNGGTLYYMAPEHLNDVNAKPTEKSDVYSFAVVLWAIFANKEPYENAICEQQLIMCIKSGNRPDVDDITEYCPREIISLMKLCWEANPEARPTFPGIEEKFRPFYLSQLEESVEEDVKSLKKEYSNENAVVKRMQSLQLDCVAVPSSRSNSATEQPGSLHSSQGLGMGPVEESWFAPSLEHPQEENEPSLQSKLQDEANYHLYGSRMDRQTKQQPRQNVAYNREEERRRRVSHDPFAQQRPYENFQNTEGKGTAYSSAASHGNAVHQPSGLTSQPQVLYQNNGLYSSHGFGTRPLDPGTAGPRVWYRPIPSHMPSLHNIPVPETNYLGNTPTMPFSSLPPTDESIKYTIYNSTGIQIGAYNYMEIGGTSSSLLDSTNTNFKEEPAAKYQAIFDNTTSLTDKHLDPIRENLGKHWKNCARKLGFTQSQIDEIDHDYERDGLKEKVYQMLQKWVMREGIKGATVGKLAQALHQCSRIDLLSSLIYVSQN
T2 sequence (Q15349 whole entry): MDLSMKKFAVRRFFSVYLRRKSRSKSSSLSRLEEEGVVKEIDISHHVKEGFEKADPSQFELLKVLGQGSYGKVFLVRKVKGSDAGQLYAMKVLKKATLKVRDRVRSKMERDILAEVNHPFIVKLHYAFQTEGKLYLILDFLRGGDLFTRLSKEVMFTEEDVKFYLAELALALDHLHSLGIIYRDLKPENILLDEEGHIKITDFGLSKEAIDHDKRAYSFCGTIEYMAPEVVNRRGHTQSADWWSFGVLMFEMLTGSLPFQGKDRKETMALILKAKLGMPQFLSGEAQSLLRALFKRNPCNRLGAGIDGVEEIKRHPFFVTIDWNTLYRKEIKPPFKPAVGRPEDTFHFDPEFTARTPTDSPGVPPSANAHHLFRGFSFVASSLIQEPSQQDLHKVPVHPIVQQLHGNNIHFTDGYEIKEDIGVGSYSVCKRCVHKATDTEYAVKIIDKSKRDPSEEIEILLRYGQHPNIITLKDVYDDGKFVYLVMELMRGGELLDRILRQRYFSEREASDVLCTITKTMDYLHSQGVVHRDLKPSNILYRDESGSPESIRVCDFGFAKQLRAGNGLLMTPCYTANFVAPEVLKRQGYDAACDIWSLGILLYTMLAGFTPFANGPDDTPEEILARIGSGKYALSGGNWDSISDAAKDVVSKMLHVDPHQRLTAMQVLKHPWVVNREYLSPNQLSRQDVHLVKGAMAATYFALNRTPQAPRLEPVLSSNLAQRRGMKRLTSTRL

`Cc1ncccc1Oc1sc(C(N)=O)c2c1-c1c(cnn1C)CC2` [T-474, 1-methyl-8-((2-methylpyridin-3-yl)oxy)-4,5-dihydro-1H-thieno[3,4-g]indazole-6-carboxamide] showed a remaining binding at 0.3 µM (AKT1) of 98%, a remaining binding at 0.3 µM (AURKC) of 100% and a remaining binding at 0.3 µM (BTK) of 81%. For the same molecule, the remaining binding at 0.3 µM (CAMK2D) was 100%, the remaining binding at 0.3 µM (CDK5) was 94% and the remaining binding at 0.3 µM (CDKL1) was 76%. For the same molecule, the remaining binding at 0.3 µM (CLK3) was 100%, the remaining binding at 0.3 µM [1] was 68% and the remaining binding at 0.3 µM (ERBB4) was 100%. For the same molecule, the remaining binding at 0.3 µM (IRAK1) was 100%, the remaining binding at 0.3 µM (MAP4K5) was 70% and the remaining binding at 0.3 µM (MST4) was 64%. For the same molecule, the remaining binding at 0.3 µM (PAK1) was 94%, the remaining binding at 0.3 µM (PIK3CB) was 100% and the remaining binding at 0.3 µM (PRKCQ) was 100%. It also gave a remaining binding at 0.3 µM (RIPK1) of 95%, a remaining binding at 0.3 µM [2] of 100% and a remaining binding at 0.3 µM [3] of 100%. For the same molecule, the remaining binding at 0.3 µM (SGK3) was 61%, the remaining binding at 0.3 µM (STK36) was 100% and the remaining binding at 0.3 µM (TTK) was 97%. It also gave a remaining binding at 0.3 µM (WEE2) of 100%.
Molecule `O=C(/C=C/c1cnccc1-c1ccc(F)cc1)Nc1ccc(CCc2nnco2)cc1` [T-418, (2E)-3-(4-(4-fluorophenyl)pyridin-3-yl)-N-(4-(2-(1,3,4-oxadiazol-2-yl)ethyl)phenyl)acrylamide] has a remaining binding at 0.3 µM (AKT1; sheet T-418) of 85%, a remaining binding at 0.3 µM (AURKC; sheet T-418) of 100% and a remaining binding at 0.3 µM (BTK; sheet T-418) of 79%. The remaining binding at 0.3 µM (CAMK2D; sheet T-418) was 100%, the remaining binding at 0.3 µM (CDK5; sheet T-418) was 80% and the remaining binding at 0.3 µM (CDKL1; sheet T-418) was 88%. It also gave a remaining binding at 0.3 µM (CLK3; sheet T-418) of 92%, a remaining binding at 0.3 µM ([1]; sheet T-418) of 58% and a remaining binding at 0.3 µM (ERBB4; sheet T-418) of 89%. It also gave a remaining binding at 0.3 µM (IRAK1; sheet T-418) of 100%, a remaining binding at 0.3 µM (MAP4K5; sheet T-418) of 85% and a remaining binding at 0.3 µM (MST4; sheet T-418) of 63%. For the same molecule, the remaining binding at 0.3 µM (PAK1; sheet T-418) was 76%, the remaining binding at 0.3 µM (PIK3CB; sheet T-418) was 96% and the remaining binding at 0.3 µM (PRKCQ; sheet T-418) was 83%. It also gave a remaining binding at 0.3 µM (RIPK1; sheet T-418) of 83%, a remaining binding at 0.3 µM ([2]; sheet T-418) of 79% and a remaining binding at 0.3 µM ([3]; sheet T-418) of 100%. The remaining binding at 0.3 µM (SGK3; sheet T-418) was 62%, the remaining binding at 0.3 µM (STK36; sheet T-418) was 100% and the remaining binding at 0.3 µM (TTK; sheet T-418) was 90%. It also gave a remaining binding at 0.3 µM (WEE2; sheet T-418) of 100%.

— publication PMC5862592, “CDK8/19 inhibition induces premature G1/S transition and ATR-dependent cell death in prostate cancer cells” (Oncotarget, 2018)
